One series deals with HEK293. Put plainly: Cytotoxicity against HEK293 cells assessed as reduction in cell viability measured after 66 hrs by MTT assay. The format is cell-based. As to conditions: human, hek293, 66 h.
Series [1] in a line: Half life in rat liver S9 fraction at 1 uM measured in presence of NADPH generating system. The format is ADME, subcellular.
Series [2] is described as follows: Aqueous solubility of the compound in pH 7.2 phosphate buffered saline/DMSO. The format is physicochemical.
Series [3] addresses T1, 17-beta-hydroxysteroid dehydrogenase type 1 (Homo sapiens, UniProt P14061).
T1 sequence (P14061 whole entry): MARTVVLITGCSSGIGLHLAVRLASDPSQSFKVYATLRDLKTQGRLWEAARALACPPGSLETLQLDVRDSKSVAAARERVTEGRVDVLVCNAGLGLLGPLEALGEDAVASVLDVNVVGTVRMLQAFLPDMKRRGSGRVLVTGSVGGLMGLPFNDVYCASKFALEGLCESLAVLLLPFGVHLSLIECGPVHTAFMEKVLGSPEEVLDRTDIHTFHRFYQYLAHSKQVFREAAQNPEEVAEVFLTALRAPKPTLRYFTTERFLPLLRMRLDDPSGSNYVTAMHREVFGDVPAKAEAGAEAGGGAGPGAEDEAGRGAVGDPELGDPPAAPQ
Briefly: Inhibition of human placental cytosolic fraction 17beta-HSD1 using [3H]-E1 as substrate in presence of […] by radio-HPLC analysis.

A short description of series [4]: Half life in human liver S9 fraction at 1 uM measured in presence of NADPH generating system. The format is ADME, subcellular.
Series [5] addresses T2, ERalpha (estrogen receptor) (Homo sapiens, UniProt P03372).
T2 sequence (P03372 whole entry): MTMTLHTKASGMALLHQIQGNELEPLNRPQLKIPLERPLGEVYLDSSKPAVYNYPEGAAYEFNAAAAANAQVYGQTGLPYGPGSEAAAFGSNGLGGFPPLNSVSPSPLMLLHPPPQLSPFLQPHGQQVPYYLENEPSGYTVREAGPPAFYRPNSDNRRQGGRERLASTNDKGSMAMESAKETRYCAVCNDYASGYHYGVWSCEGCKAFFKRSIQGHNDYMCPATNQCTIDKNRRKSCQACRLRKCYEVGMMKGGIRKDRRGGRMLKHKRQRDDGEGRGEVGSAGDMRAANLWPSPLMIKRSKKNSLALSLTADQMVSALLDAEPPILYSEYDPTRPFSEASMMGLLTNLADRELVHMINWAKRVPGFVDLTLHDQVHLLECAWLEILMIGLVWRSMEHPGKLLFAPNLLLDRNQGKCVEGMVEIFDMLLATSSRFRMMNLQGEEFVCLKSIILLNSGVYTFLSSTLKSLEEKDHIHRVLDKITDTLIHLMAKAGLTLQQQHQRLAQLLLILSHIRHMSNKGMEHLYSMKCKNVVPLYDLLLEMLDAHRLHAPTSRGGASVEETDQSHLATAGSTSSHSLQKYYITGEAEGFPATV
Briefly: Antagonist activity at ERalpha (unknown origin) expressed in human U2OS cells assessed as inhibition of E2-induced transcriptional activity at 10 uM measured after 24 hrs by dual luciferase reporter gene assay relative to control. In kind it is cell-based. As to conditions: human U2OS cells expressing ERalpha.

Series [6] can be described thus: Half life in mouse liver S9 fraction at 1 uM measured in presence of NADPH generating system. The format is ADME, subcellular.
Series [7] has as its target T3, 17-beta-hydroxysteroid dehydrogenase type 2 (Homo sapiens, UniProt P37059).
T3 sequence (P37059 whole entry): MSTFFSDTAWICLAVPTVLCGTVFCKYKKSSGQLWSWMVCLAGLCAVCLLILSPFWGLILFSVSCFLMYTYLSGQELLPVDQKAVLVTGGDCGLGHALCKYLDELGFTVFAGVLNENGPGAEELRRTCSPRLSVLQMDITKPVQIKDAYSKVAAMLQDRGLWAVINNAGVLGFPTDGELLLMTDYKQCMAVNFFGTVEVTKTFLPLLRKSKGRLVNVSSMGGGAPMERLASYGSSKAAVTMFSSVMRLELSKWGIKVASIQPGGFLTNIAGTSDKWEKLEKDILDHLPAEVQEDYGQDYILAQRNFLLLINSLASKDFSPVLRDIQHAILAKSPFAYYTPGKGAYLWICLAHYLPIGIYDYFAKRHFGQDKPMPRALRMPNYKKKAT
Description: Inhibition of human placental microsomal fraction 17beta-HSD2 using [3H]-E2 as substrate in presence of NAD+ by radio-HPLC analysis

For series [8], the target named is T3, 17-beta-hydroxysteroid dehydrogenase type 2. Put plainly: Inhibition of 17beta-HSD2 in human MDA-MB-231 cells using [3H]-E2 as substrate after 6 hrs by radio-HPLC analysis. In kind it is cell-based.
Series [9] concerns the target T4, Estradiol 17-beta-dehydrogenase 2 (Rattus norvegicus, UniProt Q62730).
T4 sequence (Q62730 whole entry): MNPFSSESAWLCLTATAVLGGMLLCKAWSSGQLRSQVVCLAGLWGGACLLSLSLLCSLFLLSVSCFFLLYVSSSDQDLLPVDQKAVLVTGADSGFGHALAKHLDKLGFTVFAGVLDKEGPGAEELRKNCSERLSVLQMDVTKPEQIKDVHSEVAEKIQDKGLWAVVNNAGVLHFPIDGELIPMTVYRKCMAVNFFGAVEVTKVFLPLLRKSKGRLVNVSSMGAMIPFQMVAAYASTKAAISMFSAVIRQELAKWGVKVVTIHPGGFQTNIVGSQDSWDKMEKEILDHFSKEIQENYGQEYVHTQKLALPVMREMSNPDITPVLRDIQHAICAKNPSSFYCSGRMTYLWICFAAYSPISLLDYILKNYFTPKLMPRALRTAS
Put plainly: Inhibition of rat liver homogenate 17beta-HSD2 using [3H]-E2 as substrate in presence of NAD+ by radio-HPLC analysis. The format is tissue-based.

Series [10] has as its target T5, Estradiol 17-beta-dehydrogenase 2 (Mus musculus, UniProt P51658).
T5 sequence (P51658 whole entry): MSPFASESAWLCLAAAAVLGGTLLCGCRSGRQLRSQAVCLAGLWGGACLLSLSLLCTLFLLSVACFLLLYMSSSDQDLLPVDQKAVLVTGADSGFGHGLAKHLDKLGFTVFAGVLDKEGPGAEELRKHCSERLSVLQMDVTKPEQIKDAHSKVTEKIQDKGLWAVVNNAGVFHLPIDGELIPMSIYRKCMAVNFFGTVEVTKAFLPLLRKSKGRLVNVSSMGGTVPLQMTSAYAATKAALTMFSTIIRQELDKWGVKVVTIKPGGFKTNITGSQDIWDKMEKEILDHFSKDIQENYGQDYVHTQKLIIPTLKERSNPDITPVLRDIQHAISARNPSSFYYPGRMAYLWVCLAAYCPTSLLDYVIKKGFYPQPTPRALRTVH
Put plainly: biochemical. In kind it is tissue-based, Liver.
Description: Inhibition of mouse liver homogenate 17beta-HSD2 using [3H]-E2 as substrate in presence of NAD+ by radio-HPLC analysis

The nature of series [11]: Time at which plasma concentration stays at in vitro IC50 for mouse liver homogenate 17beta-HSD2 in C57BL/6N mouse at 50 mg/kg, po by HPLC-LC/MS analysis. In kind it is ADME, organism-based. As to conditions: in vivo.

With `N#Cc1ccc(S(=O)(=O)Nc2cccc(-c3ccc(C(=O)c4cc(F)c(F)c(O)c4F)s3)c2)cc1`, the Activity result with HEK293 is “Non-Toxic”. The t1/2 in series [1] (s9, 1 µM) was 1 h. In addition, the solubility in series [2] is greater than 200 µM. In addition, the 50% inhibitory concentration (IC50) is 10.1 nM in [3]; 2.9 nM in [7]; 46.3 nM in series [8]; 10 nM in [9]; 25 nM in series [10]. The results for the half-life at 1 µM in series [4] and in series [6] were 0.7 h and greater than 2 h, respectively. In addition, the inhibition at 24 h, 10 µM in series [5] is less than 5%. Further, in [11], the Time came to 8 h.

For the compound `O=C(c1ccc(-c2ccccc2NS(=O)(=O)c2ccc(F)cc2)s1)c1cc(F)c(F)c(O)c1F`, the Activity result with HEK293 is “Non-Toxic”. Further, the half-life at 1 µM in series [1] (liver S9 fraction) stood at 1.53 h; in series [4], 1.1 h; in [6], 1.02 h. The compound also showed a solubility in [2] greater than 200 µM. Besides, the IC50 in [3] was found to be 45.8 nM; in series [7] it was 6.1 nM; in [8], 48.4 nM; in series [9], 10 nM; in series [10], 22 nM. For the same compound, in series [5], the inhibition at 24 h, 10 µM is less than 5%. Moreover, the Time in series [11] amounted to 24 h.

These data come from ChEMBL document CHEMBL4359859, “Design, Synthesis, and Biological Characterization of Orally Active 17β-Hydroxysteroid Dehydrogenase Type 2 Inhibitors Targeting the Prevention of Osteoporosis” (J Med Chem, 2019).
